# Assay results: PubChem BioAssay AID2060328 (Molecular Pharmacology Branch, DTP, NCI, 2025)
# Test system: MDA-MB-231 multicell spheroids, viability (%T/C)
# Experiment: Anticancer human tumor MDA-MB-231 cell line growth inhibition [IpAb];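 also: viability read after seven days of drug exposure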;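 as to viability, T/C: 100% = DMSO vehicle control viability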
# Conditions: for IC50: curve of first compound; for viability, T/C: stronger effect = lower value
# Procedure, shortened: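 Combinations with ipatasertib or abemaciclib were tested on tumour spheroids holding HUVEC (25%) and MSC (15%) alongside 60% malignant cells. Top concentration was at or near clinical Cmax (10 microM if undefined), descending in half-log steps.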
# [1] = second compound 0.01 µM, first compound 0.00316 µM
# [2] = second compound 0.01 µM, first compound 0.01 µM
# [3] = second compound 0.01 µM, first compound 0.0316 µM
# [4] = second compound 0.01 µM, first compound 0.1 µM
# [5] = second compound 0.0316 µM, first compound 0.00316 µM
# [6] = second compound 0.0316 µM, first compound 0.01 µM
# [7] = second compound 0.0316 µM, first compound 0.0316 µM
# [8] = second compound 0.0316 µM, first compound 0.1 µM
# [9] = second compound 0.1 µM, first compound 0.00316 µM
# [10] = second compound 0.1 µM, first compound 0.01 µM
# [11] = second compound 0.1 µM, first compound 0.0316 µM
# [12] = second compound 0.1 µM, first compound 0.1 µM
# [13] = second compound 0.316 µM, first compound 0.00316 µM
# [14] = second compound 0.316 µM, first compound 0.01 µM
# [15] = second compound 0.316 µM, first compound 0.0316 µM
# [16] = second compound 0.316 µM, first compound 0.1 µM
# [17] = second compound 1 µM, first compound 0.00316 µM
# [18] = second compound 1 µM, first compound 0.01 µM
# [19] = second compound 1 µM, first compound 0.0316 µM
# [20] = second compound 1 µM, first compound 0.1 µM
# [21] = second compound 0.01 µM, first compound 0.316 µM
# [22] = second compound 0.01 µM, first compound 1 µM
# [23] = second compound 0.01 µM, first compound 3.16 µM
# [24] = second compound 0.01 µM, first compound 10 µM
# [25] = second compound 0.0316 µM, first compound 0.316 µM
# [26] = second compound 0.0316 µM, first compound 1 µM
# [27] = second compound 0.0316 µM, first compound 3.16 µM
# [28] = second compound 0.0316 µM, first compound 10 µM
# [29] = second compound 0.1 µM, first compound 0.316 µM
# [30] = second compound 0.1 µM, first compound 1 µM
# [31] = second compound 0.1 µM, first compound 3.16 µM
# [32] = second compound 0.1 µM, first compound 10 µM
# [33] = second compound 0.316 µM, first compound 0.316 µM
# [34] = second compound 0.316 µM, first compound 1 µM
# [35] = second compound 0.316 µM, first compound 3.16 µM
# [36] = second compound 0.316 µM, first compound 10 µM
# [37] = second compound 1 µM, first compound 0.316 µM
# [38] = second compound 1 µM, first compound 1 µM
# [39] = second compound 1 µM, first compound 3.16 µM
# [40] = second compound 1 µM, first compound 10 µM
structure (smiles),measurement,setting,value
CC(C)n1nc(-c2ccc3oc(N)nc3c2)c2c(N)ncnc21 + CCN1CCN(Cc2ccc(Nc3ncc(F)c(-c4cc(F)c5nc(C)n(C(C)C)c5c4)n3)nc2)CC1,IC50,second compound 0.01 µM,7.66 nM
same,IC50,second compound 0.0316 µM,2.71 nM
same,IC50,second compound 0.1 µM,0.66 nM
same,IC50,second compound 0.316 µM,< 0.316 nM
same,IC50,second compound 1 µM,< 0.316 nM
same,"viability, T/C","second compound 0.01 µM, first compound 0.000316 µM",90.3%
same,"viability, T/C","second compound 0.01 µM, first compound 0.001 µM",85.6%
same,"viability, T/C",[1],65.5%
same,"viability, T/C",[2],45.9%
same,"viability, T/C",[3],34.6%
same,"viability, T/C",[4],32.3%
same,"viability, T/C","second compound 0.0316 µM, first compound 0.000316 µM",73.7%
same,"viability, T/C","second compound 0.0316 µM, first compound 0.001 µM",64.5%
same,"viability, T/C",[5],48.2%
same,"viability, T/C",[6],33.1%
same,"viability, T/C",[7],28.8%
same,"viability, T/C",[8],26.8%
same,"viability, T/C","second compound 0.1 µM, first compound 0.000316 µM",55.1%
same,"viability, T/C","second compound 0.1 µM, first compound 0.001 µM",47%
same,"viability, T/C",[9],37.4%
same,"viability, T/C",[10],30.2%
same,"viability, T/C",[11],27.6%
same,"viability, T/C",[12],27.6%
same,"viability, T/C","second compound 0.316 µM, first compound 0.000316 µM",41.7%
same,"viability, T/C","second compound 0.316 µM, first compound 0.001 µM",38%
same,"viability, T/C",[13],31.4%
same,"viability, T/C",[14],30.1%
same,"viability, T/C",[15],29.6%
same,"viability, T/C",[16],29.3%
same,"viability, T/C","second compound 1 µM, first compound 0.000316 µM",47.1%
same,"viability, T/C","second compound 1 µM, first compound 0.001 µM",45%
same,"viability, T/C",[17],39.8%
same,"viability, T/C",[18],45.4%
same,"viability, T/C",[19],47.4%
same,"viability, T/C",[20],49.8%
CC1(C)CCC(CN2CCN(c3ccc(C(=O)NS(=O)(=O)c4ccc(NCC5CCOCC5)c([N+](=O)[O-])c4)c(Oc4cnc5[nH]ccc5c4)c3)CC2)=C(c2ccc(Cl)cc2)C1 + CCN1CCN(Cc2ccc(Nc3ncc(F)c(-c4cc(F)c5nc(C)n(C(C)C)c5c4)n3)nc2)CC1,IC50,second compound 0.01 µM,5850 nM
same,IC50,second compound 0.0316 µM,5150 nM
same,IC50,second compound 0.1 µM,4260 nM
same,IC50,second compound 0.316 µM,< 31.6 nM
same,IC50,second compound 1 µM,3220 nM
same,"viability, T/C",[3],102%
same,"viability, T/C",[4],97.5%
same,"viability, T/C",[21],100%
same,"viability, T/C",[22],101%
same,"viability, T/C",[23],94.8%
same,"viability, T/C",[24],11%
same,"viability, T/C",[7],86.7%
same,"viability, T/C",[8],81.8%
same,"viability, T/C",[25],82.2%
same,"viability, T/C",[26],83.2%
same,"viability, T/C",[27],78.6%
same,"viability, T/C",[28],11.2%
same,"viability, T/C",[11],64.2%
same,"viability, T/C",[12],66.6%
same,"viability, T/C",[29],63.9%
same,"viability, T/C",[30],65%
same,"viability, T/C",[31],66.4%
same,"viability, T/C",[32],6.54%
same,"viability, T/C",[15],50.5%
same,"viability, T/C",[16],50.4%
same,"viability, T/C",[33],48.2%
same,"viability, T/C",[34],47.9%
same,"viability, T/C",[35],44.8%
same,"viability, T/C",[36],7.02%
same,"viability, T/C",[19],48.2%
same,"viability, T/C",[20],52.7%
same,"viability, T/C",[37],52.9%
same,"viability, T/C",[38],53.4%
same,"viability, T/C",[39],50.7%
same,"viability, T/C",[40],7.14%
CCCS(=O)(=O)Nc1ccc(F)c(C(=O)c2c[nH]c3ncc(-c4ccc(Cl)cc4)cc23)c1F + CCN1CCN(Cc2ccc(Nc3ncc(F)c(-c4cc(F)c5nc(C)n(C(C)C)c5c4)n3)nc2)CC1,IC50,second compound 0.01 µM,6840 nM
same,IC50,second compound 0.0316 µM,4640 nM
same,IC50,second compound 0.1 µM,2900 nM
same,IC50,second compound 0.316 µM,887 nM
same,IC50,second compound 1 µM,550 nM
same,"viability, T/C",[3],105%
same,"viability, T/C",[4],104%
same,"viability, T/C",[21],110%
same,"viability, T/C",[22],93.9%
same,"viability, T/C",[23],70.5%
same,"viability, T/C",[24],40.1%
same,"viability, T/C",[7],82.9%
same,"viability, T/C",[8],87.4%
same,"viability, T/C",[25],86.4%
same,"viability, T/C",[26],80.2%
same,"viability, T/C",[27],57.6%
same,"viability, T/C",[28],34.9%
same,"viability, T/C",[11],70.5%
same,"viability, T/C",[12],66.4%
same,"viability, T/C",[29],66.6%
same,"viability, T/C",[30],62.8%
same,"viability, T/C",[31],48.8%
same,"viability, T/C",[32],32.9%
same,"viability, T/C",[15],52.8%
same,"viability, T/C",[16],53.5%
same,"viability, T/C",[33],51%
same,"viability, T/C",[34],47.8%
same,"viability, T/C",[35],44.3%
same,"viability, T/C",[36],23.4%
same,"viability, T/C",[19],51.9%
same,"viability, T/C",[20],55%
same,"viability, T/C",[37],53.1%
same,"viability, T/C",[38],45.6%
same,"viability, T/C",[39],43.8%
same,"viability, T/C",[40],32.6%
COc1c(OCCCN2CCOCC2)ccc2c3n(c(=NC(=O)c4cnc(N)nc4)nc12)CCN3 + CCN1CCN(Cc2ccc(Nc3ncc(F)c(-c4cc(F)c5nc(C)n(C(C)C)c5c4)n3)nc2)CC1,IC50,second compound 0.01 µM,24 nM
same,IC50,second compound 0.0316 µM,14.6 nM
same,IC50,second compound 0.1 µM,4.68 nM
same,IC50,second compound 0.316 µM,< 3.16 nM
same,IC50,second compound 1 µM,< 3.16 nM
same,"viability, T/C",[1],81.7%
same,"viability, T/C",[2],59%
same,"viability, T/C",[3],50.2%
same,"viability, T/C",[4],37.7%
same,"viability, T/C",[21],31.7%
same,"viability, T/C",[22],37.7%
same,"viability, T/C",[5],65.5%
same,"viability, T/C",[6],53.1%
same,"viability, T/C",[7],43.9%
same,"viability, T/C",[8],34.1%
same,"viability, T/C",[25],29.7%
same,"viability, T/C",[26],38.5%
same,"viability, T/C",[9],53.7%
same,"viability, T/C",[10],44.2%
same,"viability, T/C",[11],36.6%
same,"viability, T/C",[12],31.1%
same,"viability, T/C",[29],29.1%
same,"viability, T/C",[30],43.4%
same,"viability, T/C",[13],46.4%
same,"viability, T/C",[14],41.6%
same,"viability, T/C",[15],35.2%
same,"viability, T/C",[16],31.7%
same,"viability, T/C",[33],34.4%
same,"viability, T/C",[34],67.5%
same,"viability, T/C",[17],53%
same,"viability, T/C",[18],48.6%
same,"viability, T/C",[19],46.8%
same,"viability, T/C",[20],44.8%
same,"viability, T/C",[37],55.1%
same,"viability, T/C",[38],128%
Cc1nc(NC(=O)N2CCCC2C(N)=O)sc1-c1ccnc(C(C)(C)C(F)(F)F)c1 (stereo not given) + CCN1CCN(Cc2ccc(Nc3ncc(F)c(-c4cc(F)c5nc(C)n(C(C)C)c5c4)n3)nc2)CC1,IC50,second compound 0.01 µM,> 10000 nM
same,IC50,second compound 0.0316 µM,159 nM
same,IC50,second compound 0.1 µM,< 31.6 nM
same,IC50,second compound 0.316 µM,< 31.6 nM
same,IC50,second compound 1 µM,< 31.6 nM
same,"viability, T/C",[3],79.3%
same,"viability, T/C",[4],61.5%
same,"viability, T/C",[21],56%
same,"viability, T/C",[22],55.2%
same,"viability, T/C",[23],59.1%
same,"viability, T/C",[24],55.4%
same,"viability, T/C",[7],64%
same,"viability, T/C",[8],52.2%
same,"viability, T/C",[25],46.6%
same,"viability, T/C",[26],45.9%
same,"viability, T/C",[27],47.3%
same,"viability, T/C",[28],45.4%
same,"viability, T/C",[11],46.1%
same,"viability, T/C",[12],41.8%
same,"viability, T/C",[29],35.8%
same,"viability, T/C",[30],38.4%
same,"viability, T/C",[31],41.5%
same,"viability, T/C",[32],41.8%
same,"viability, T/C",[15],43.7%
same,"viability, T/C",[16],39.3%
same,"viability, T/C",[33],37.3%
same,"viability, T/C",[34],37.7%
same,"viability, T/C",[35],39.4%
same,"viability, T/C",[36],45.3%
same,"viability, T/C",[19],50.8%
same,"viability, T/C",[20],48.2%
same,"viability, T/C",[37],44.6%
same,"viability, T/C",[38],45.9%
same,"viability, T/C",[39],53.9%
same,"viability, T/C",[40],61%
